Reference: paper PMC6093650, “Antidepressive and anxiolytic effects of ostruthin, a TREK-1 channel activator” (PLoS ONE, 2018)
pIC50: −log10 of the molar value.

How the values were obtained:
[1] = tested on: mice anxiety-like behavior; test: open-field test; format: in vivo; conditions: n = 12
From the text: Male ICR mice (n = 317 in total) aged 5 weeks and weighing 32 ± 2 g were purchased from Shimizu Laboratory Supplies (Kyoto, Japan). For the social defeat stress test, we used 28 C57BL/6J mice (5 weeks old, Shimizu Laboratory Supplies) and 30 ICR mice (7–8 weeks old, Charles River Labs Japan, Yokohama, Kanagawa, Japan). Mice were maintained for at least 1 week prior to experiments. Animals were kept in groups in plastic cages. They had free access to food and water, and were kept in a 12-h light/dark cycle (08:00–20:00). Experiments were carried out between 10:00 and 18:00 in a quiet and air-conditioned experimental room, in which mice were habituated for at least 30 min before each experiment. Animal experiments were performed in accordance with the guidelines of the Physiological Society of Japan and were approved by the Committees on Animal Experiments at Kansai Medical University and the Kurashiki University of Science and the Arts. Ostruthin was initially dissolved in DMSO at higher concentration (100 mM) and then diluted in phosphate-buffered saline (PBS). The diluted solution was mixed vigorously for more than 10 min before the experiments, and an equal volume of DMSO was added to PBS as a control. PBS and ostruthin were administered intraperitoneally 30 min before mice behavioral tests (0.01 ml/g body weight). Each animal was used only once, except for the wheel running test, which was carried out immediately after elevated plus maze.
The open-field test was performed in accordance with a previous report with minor modifications. The open-field consisted of a square (90 × 90 cm), in which the floor was divided into 16 equal squares. After a mouse was placed in a corner of the open field facing the wall, the number of the entries into the central squares, and whole line crossings were counted for 5 min. After removal of animal, the apparatus was cleaned and wiped.

Kv1.4 = Kv1.4 (Homo sapiens, UniProt P22459); test: whole-cell patch-clamp of Kv1.4 currents in 293T cells; format: cell-based; conditions: n = 5
From the text: (§1) For recordings of K^+ channel currents, we prepared stable cell lines for TREK-1, TWIK-related acid-sensitive K^+ channel (TASK-1), strongly inwardly rectifying K^+ channel (Kir2.1), and human ether-a-go-go-related gene (HERG-1) channels and transiently expressed other channels in 293T cells using a calcium-phosphate transfection method. For the establishment of the stable lines, we used lentiviral vectors, and the preparation methods for the lentiviral vectors were described in our previous report. TR-1 cells, which stably expressed TREK-1 channel and were grown on a small cover glass (3 × 18 mm), were placed in a recording chamber with an internal volume of 200 μl. Whole-cell currents were recorded in Tyrode solution using an Axopatch 200B amplifier (Axon Instruments, Foster City, CA) at 25°C. Tyrode solution contained (in mM): NaCl 140, KCl 5.4, NaH2PO4 0.33, CaCl2 2, MgCl2 1, HEPES 5, and glucose 5.5 (pH 7.4 adjusted with NaOH). […] Perfusion (100 μl/min) was continued to maintain the water level throughout recordings. pH and osmotic pressure of solutions were measured with a pH meter (Horiba, Kyoto, Japan) and a freezing point osmometer (Knauer, Berlin, Germany), respectively. […]

c-Fos immunoreactivity = test: anti-c-Fos immunostaining of mouse brain nuclei; format: in vivo, mice
Experimental: The mouse was put into an anesthetizing jar and isoflurane (>0.2 ml) was added to the jar. After confirming that mouse was deeply anesthetized, its brain was fixed by transcardiac perfusion with 4% paraformaldehyde in PBS. The brains were sliced coronally (100 μm in thickness) using a microslicer (PRO7, Dosaka, Kyoto, Japan). The free-floating slices were reacted with an anti-c-Fos antibody (1: 200, goat, Santa Cruz, Dallas, TX) dissolved in PBS containing 0.3% BSA and 0.3% Triton-X-100, at 4°C for 48 h. The immunoreaction was visualized using a secondary antibody (rabbit anti-goat IgG, Vectastain Elite ABC-HRP Kit, Vector Labs, Burlingame, CA) and 3,3'-Diaminobenzidine (DAB, Tokyo Chemical Industry, Tokyo, Japan) at room temperature in accordance with the manufacturer’s instructions.
For statistical analysis, the number of c-Fos-immunoreactive cells was quantified using the Image-J software. Briefly, fields (0.16 mm^2) of c-Fos immunoreactivity were acquired by a microscope IX70 (Olympus) using a CCD camera. DAB-positive nuclei, of which diameters were longer than 7 μm, were considered as anti-c-Fos-immunoreactive neurons. The immunoreactive cell numbers were normalized to cells/mm^2.

KCNQ-1 = KCNQ-1 (Homo sapiens, UniProt P51787); test: whole-cell patch-clamp of KCNQ-1 currents in 293T cells; format: cell-based; conditions: 100 μM (data not shown)
From the text: as §1

[2] = tested on: GABAergic mIPSCS in the amygdala neurons; test: GABAergic mIPSCs in amygdala neurons (preliminary data); format: cell-based; conditions: 100 μM
[3] = 5 mg/kg, 30 min after tail suspension stress, n = 4

Kv1.4, sequence (P22459 whole entry): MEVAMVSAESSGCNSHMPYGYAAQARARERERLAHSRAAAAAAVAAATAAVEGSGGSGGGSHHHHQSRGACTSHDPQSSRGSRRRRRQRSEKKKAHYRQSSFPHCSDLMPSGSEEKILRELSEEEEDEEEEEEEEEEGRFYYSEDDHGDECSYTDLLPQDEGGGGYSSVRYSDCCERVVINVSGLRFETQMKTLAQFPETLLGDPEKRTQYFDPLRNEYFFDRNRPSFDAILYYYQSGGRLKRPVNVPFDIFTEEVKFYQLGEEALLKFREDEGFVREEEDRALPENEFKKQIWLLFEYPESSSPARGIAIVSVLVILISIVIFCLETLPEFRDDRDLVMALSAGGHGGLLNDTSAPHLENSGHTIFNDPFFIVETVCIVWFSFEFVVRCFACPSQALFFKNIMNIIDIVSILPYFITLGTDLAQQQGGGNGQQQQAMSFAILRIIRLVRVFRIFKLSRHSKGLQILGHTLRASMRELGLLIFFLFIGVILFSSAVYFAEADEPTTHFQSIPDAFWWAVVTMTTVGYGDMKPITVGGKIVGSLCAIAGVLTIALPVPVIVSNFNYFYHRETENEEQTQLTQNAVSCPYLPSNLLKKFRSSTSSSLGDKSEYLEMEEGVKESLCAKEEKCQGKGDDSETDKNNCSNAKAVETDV

pIC50 (Kv1.4): 3.57
effect on KCNQ-1 channels (KCNQ-1): no effect
SMILES: CC(C)=CCC/C(C)=C/Cc1cc2ccc(=O)oc2cc1O [ostruthin]
number of entries to the central area ([1]; 20 mg/kg i.p. 30 min before test, vs 5 mg/kg): significantly decreased
total line crossings ([1]; 20 mg/kg i.p., vs 5 mg/kg): decrease
number of entries to the central area ([1]; 2 and 5 mg/kg i.p. 30 min before test, vs 0 mg/kg, 5 min): significantly increased
total line crossings ([1]; 2 and 5 mg/kg i.p. 30 min before test, vs 0 mg/kg): increased
stress-induced c-Fos immunoreactivity in most nuclei (PVN, PVT, CeA, BLA, DRD, DRV) (c-Fos immunoreactivity; [3]): no significant differences
stress-induced increase in c-Fos immunoreactivity in the lateral septum (LS) (c-Fos immunoreactivity; [3]): significantly suppressed
anti-c-Fos immunoreactivity in non-stressed animals (c-Fos immunoreactivity; fixed 30 min after administration, vs PBS (data not shown)): no difference
amplitude or frequency of GABAergic mIPSCS in the amygdala neurons [2]: no effect
